By solubility is commonly meant the concentration that dissolves in the medium under given conditions. Lower therefore signals little dissolved substance.

For twelve molecules, solubility results are on record in patent US9539252B2, “Piperazine-substituted benzothiophene derivatives as antipsychotic agents” (OTSUKA PHARMACEUTICAL CO., LTD., priority 2011, dated 2017).

The nature of this data set: Solubility in oil (sesame oil, benzyl benzoate), visual observation. To be noted: oil or lipid, thermodynamic from solid.

`O=C(OCN1C(=O)CCc2ccc(OCCCCN3CCN(c4cccc5sccc45)CC3)cc21)N1CCCCC1` [Example 9, piperidine-1-carboxylic acid 7-[4-(4-benzo[b]thiophen-4-ylpiperazin-1-yl)butoxy]-2-oxo-3,4-dihydro-2H-quinolin-1-ylmethyl ester] had a solubility (benzyl benzoate) of more than 100 mg/mL.

For `O=C(OCn1c(=O)ccc2ccc(OCCCCN3CCN(c4cccc5sccc45)CC3)cc21)N1CCCCC1` [Example 10, piperidine-1-carboxylic acid 7-[4-(4-benzo[b]thiophen-4-ylpiperazin-1-yl)butoxy]-2-oxo-2H-quinolin-1-ylmethyl ester], the solubility (benzyl benzoate) is more than 100 mg/mL.

For the setting “benzyl benzoate”, `O=C(OCN1C(=O)CCc2ccc(OCCCCN3CCN(c4cccc5sccc45)CC3)cc21)c1ccccc1` [Example 11, benzoic acid 7-[4-(4-benzo[b]thiophen-4-ylpiperazin-1-yl)butoxy]-2-oxo-3,4-dihydro-2H-quinolin-1-ylmethyl ester] showed a solubility of more than 100 mg/mL.

In turn, `O=C(OCn1c(=O)ccc2ccc(OCCCCN3CCN(c4cccc5sccc45)CC3)cc21)c1ccccc1` [Example 12, benzoic acid 7-[4-(4-benzo[o]thiophen-4-ylpiperazin-1-yl)butoxy]-2-oxo-2H-quinolin-1-ylmethyl ester] had a solubility (benzyl benzoate) of more than 100 mg/mL.

As for `O=C(OCN1C(=O)CCc2ccc(OCCCCN3CCN(c4cccc5sccc45)CC3)cc21)C1CCCC1` [Example 13, cyclopentanecarboxylic acid 7-[4-(4-benzo[b]thiophen-4-ylpiperazin-1-yl)butoxy]-2-oxo-3,4-dihydro-2H-quinolin-1-ylmethyl ester], the solubility (benzyl benzoate) is more than 100 mg/mL.

In the case of `O=C(OCN1C(=O)CCc2ccc(OCCCCN3CCN(c4cccc5sccc45)CC3)cc21)C1CCCCC1` [Example 14, cyclohexanecarboxylic acid 7-[4-(4-benzo[b]thiophen-4-ylpiperazin-1-yl)butoxy]-2-oxo-3,4-dihydro-2H-quinolin-1-ylmethyl ester], for the setting “benzyl benzoate”, the solubility is more than 100 mg/mL.

As for `CC(C)(C)C(=O)OCN1C(=O)CCc2ccc(OCCCCN3CCN(c4cccc5sccc45)CC3)cc21` [Example 15, 2,2-dimethylpropionic acid 7-[4-(4-benzo[b]thiophen-4-ylpiperazin-1-yl)butoxy]-2-oxo-3,4-dihydro-2H-quinolin-1-ylmethyl ester], the solubility (benzyl benzoate) is more than 100 mg/mL.

Molecule `CCCCN(C)C(=O)OCN1C(=O)CCc2ccc(OCCCCN3CCN(c4cccc5sccc45)CC3)cc21` [Example 16, N-butyl-N-methylcarbamic acid 7-[4-(4-benzo[b]thiophen-4-ylpiperazin-1-yl)butoxy]-2-oxo-3,4-dihydro-2H-quinolin-1-ylmethyl ester] displayed a solubility (benzyl benzoate) of more than 100 mg/mL.

As for `CCCCCCCCCCNC(=O)OCN1C(=O)CCc2ccc(OCCCCN3CCN(c4cccc5sccc45)CC3)cc21` [Example 17, N-decylcarbamic acid 7-[4-(4-benzo[b]thiophen-4-ylpiperazin-1-yl)butoxy]-2-oxo-3,4-dihydro-2H-quinolin-1-ylmethyl ester], the solubility is, setting by setting: (benzyl benzoate) more than 100 mg/mL; (sesame oil) more than 100 mg/mL.

Molecule `CC(C)(C)C(=O)OCn1c(=O)ccc2ccc(OCCCCN3CCN(c4cccc5sccc45)CC3)cc21` [Example 18, 2,2-dimethylpropionic acid 7-[4-(4-benzo[b]thiophen-4-ylpiperazin-1-yl)butoxy]-2-oxo-2H-quinolin-1-ylmethyl ester] yielded a solubility (benzyl benzoate) of more than 100 mg/mL.

With `CCCC(=O)OCN1C(=O)CCc2ccc(OCCCCN3CCN(c4cccc5sccc45)CC3)cc21` [Example 19, butyric acid 7-[4-(4-benzo[b]thiophen-4-ylpiperazin-1-yl)butoxy]-2-oxo-3,4-dihydro-2H-quinolin-1-ylmethyl ester], the solubility (benzyl benzoate) was more than 100 mg/mL.

In the case of `CCCC(=O)OCn1c(=O)ccc2ccc(OCCCCN3CCN(c4cccc5sccc45)CC3)cc21` [Example 20, butyric acid 7-[4-(4-benzo[b]thiophen-4-ylpiperazin-1-yl)butoxy]-2-oxo-2H-quinolin-1-ylmethyl ester], the solubility (benzyl benzoate) was more than 100 mg/mL.
